Patent US7282508B2, “Substituted 4-phenyl-4-(1H-imidazol-2-yl)-piperidine derivatives and their use as selective non-peptide delta opioid agonists” (Janssen Pharmaceutica N.V., priority 2001, dated 2007)

melting point [°C]	Structure (SMILES)
251.6	CCOC(=O)N1CCC(c2ccccc2)(c2nccn2Cc2ccc(C(=O)O)cc2)CC1 [Compound 8]
84.2	CCN/C(=N/C#N)N1CCC(c2ccccc2)(c2nccn2Cc2ccccc2)CC1 [Compound 4]
149.1	CCOC(=O)N1CCC(c2ccccc2)(c2nccn2Cc2ccc(C(=O)OC)cc2)CC1 [Compound 3]
122.7	O=C(c1ccccc1)N1CCC(c2ccccc2)(c2nccn2Cc2ccccc2)CC1 [Compound 2]
